Data set [1] can be described thus: absorption spectrum (maximum absorption wavelength, molar extinction coefficient). The format is physicochemical.
Another data set relates to Hela cells. The experiment in a line: photo-cytotoxicity experiment (MTT, 635 nm laser). The format is cell-based. The protocol: Photo-cytotoxicity experiment on cell: cultured Hela cells were digested and pipetted with 0.25% trypsin and to prepare a single-cell suspension, the number of cells was adjusted to about 2×10^4 per milliliter, and 200 uL of the suspension was seeded in a well of a 96-well culture plate, which is placed in a 37° C. incubator containing 5% CO2 for cultivation. After the cells adhere to the wall, a supernatant culture solution was discarded, and photosensitizers of different concentrations, that is, the hematoporphyrin derivative HpD, the hypocrellin B HB, or HB-1c-PEG6 synthesized in example 3, were added in a strictly lucifugous condition in accordance with experimental designs, and the culture plate was placed in the 37° C. incubator containing 5% CO2 for further cultivation and incubation for 1 hour. Then, a semiconductor laser with a wavelength of 635 nm was used for irradiation, a power density was adjusted to 20 mW/cm^2, light beams were evenly and vertically applied onto the 96-well culture plate, and an irradiation time was 1000 S. In addition, each 96-well culture plate is provided with a blank group, and 6 holes were provided for in each condition. After irradiation, the culture plate was placed in the 37° C. incubator containing 5% CO2 for further cultivation and incubation for 24 hours, and then a cellular survival rate was measured. The cellular survival rate was measured by means of the MTT method. 20 uL of MTT was added to each well, wherein the MTT is MTT prepared with PBS and having a concentration of 5 mg/ml. The culture plate was placed in the 37° C. incubator containing 5% CO2 for further cultivation for 4 hours, after which the cultivation was terminated. A supernatant in the well was extracted and discarded carefully. Then, 150 uL of dimethyl sulfoxide (DMSO) was added to each well, and the culture plate was shaken by using a micro shaker for 10 minutes to fully dissolve a purple crystal substance. A wavelength of 570 nm was selected to measure an optical density value (i.e., OD value) of each well on a microplate reader, and the cellular survival rate was calculated in accordance with the following formula: cellular survival rate=OD value of an experimental group/OD value of a blank group×100%.

Data set [2] can be described thus: singlet oxygen efficiency test, reference rose bengal. The format is physicochemical.
Data set [3] is described as follows: water solubility in normal saline. As to conditions: per milliliter of normal saline. In kind it is physicochemical. The protocol:
Most of photosensitizer molecules disclosed in this patent contain a large number of hydrophilic groups, such as a polyethylene glycol chain, a quaternary ammonium salt, a carboxyl group, and a sulfonic acid group, etc., making the photosensitizer molecules have very high water solubility in a physiological condition; and experiments indicate that each milliliter of normal saline or glucose injection can dissolve more than 5 mg of such the photosensitizer molecules, presenting excellent water solubility. Therefore, the photosensitive drug can be well transported in blood vessels during intravenous injection, without causing a vascular blockage. HB-1c-C2-N+ prepared in example 4 contains two quaternary ammonium salts, and each milliliter of normal saline can dissolve more than 20 mg of photosensitizer molecules; HC-1c-PEG6 prepared in example 6 contains two 6-PEG chains, and each milliliter of normal saline can dissolve more than 20 mg of photosensitizer molecules; HB-8c prepared in example 19 contains two carboxyl groups, and each milliliter of normal saline can dissolve more than 10 mg of photosensitizer molecules; HB-13c prepared in example 35 contains two carboxyl groups, and each milliliter of normal saline can dissolve more than 10 mg of photosensitizer molecules; and HB-13c-PEG8 prepared in example 37 contains two 8-PEG chains, and each milliliter of normal saline can dissolve more than 20 mg of photosensitizer molecules. These photosensitizer molecules all present excellent water solubility.

The mark [4] stands for this setting: 240 nM, 635 nm red light, FIG. 16(b).
Where [5] appears, read: 200 nM, 635 nm light, FIG. 14(b).

Regarding `COc1c(O)c2c(=O)cc(OC)c3c4c(OC)cc(=O)c5c(O)c(OC)c6c(c(c1CC(C)=C6C(C)=O)c23)c54` [HB, hypocrellin B], in data set [1], the maximum absorption wavelength was 450 nm. The Hela cells killed result is “about 30%” in the data set on Hela cells (160 nM, 635 nm laser, FIG. 12(b)); “about 20%” in the data set with Hela cells (160 nM, 635 nm laser, FIG. 12(b), listed as hypocrellin B); 30% in the data set with Hela cells (160 nM, red light, FIG. 17(b)); 60% in the data set with Hela cells (200 nM, red light, FIG. 18(b)); 30% in the data set with Hela cells (setting [4]).
As for `COc1c(O)c2c(=O)cc(OC)c3c4c(OC)cc(=O)c5c(NCCCC(=O)O)c(NCCCC(=O)O)c6c(c(c1C(C(C)=O)C(C)=C6)c23)c54` (stereo not drawn) [HB-8a], in data set [1], the maximum absorption wavelength is on record as 622 nm and the molar extinction coefficient is 27,500 M^−1cm^−1. Besides, in data set [2], the singlet oxygen yield amounted to 25%. In data set [3], the “amount dissolved by each milliliter of normal saline” value (from here on “amount dissolved by each milliliter”) was “more than 5 mg”.
Take `COc1c2c3c4c(c(NCCCC(=O)O)c(=O)c5c(NCCCC(=O)O)cc(OC)c(c6c(OC)cc(O)c(c1=O)c63)c54)C=C(C)C2C(C)=O` (stereo not drawn) [HB-8c]: in data set [1], the maximum absorption wavelength is on record as 620 nm and the molar extinction coefficient is reported as 29,500 M^−1cm^−1. The same compound displayed a singlet oxygen yield in data set [2] of 30%. In data set [3], the “amount dissolved by each milliliter” value is reported as “more than 10 mg”.
Regarding `COc1c2c3c4c(c(NCC5CCC(C(=O)O)CC5)c(=O)c5c(NCC6CCC(C(=O)O)CC6)cc(OC)c(c6c(OC)cc(O)c(c1=O)c63)c54)C=C(C)C2C(C)=O` (stereo not drawn) [HB-13c], in data set [1], the maximum absorption wavelength stood at 621 nm and the molar extinction coefficient is reported as 29,500 M^−1cm^−1. This compound gave a singlet oxygen yield in data set [2] of 30%. In data set [3], the “amount dissolved by each milliliter” value was “more than 10 mg”. The Hela cells killed entry with Hela cells (setting [4]) is on record as “more than 85%”.
Consider `COc1c2c3c4c(c(OC)c(=O)c5c(O)cc(OC)c(c6c(OC)cc(O)c(c1=O)c63)c54)CC(C)=C2` [HC, deacetyl hypocrellin], for which the Hela cells killed with Hela cells (140 nM, 635 nm light, FIG. 13(b)) is 40%; in the data set with Hela cells (setting [5]) it was 50%; in the data set with Hela cells (240 nM, 635 nm light, FIG. 15(b)), 50%.
With `COc1c2c3c4c(c(NCCCC(=O)O)c(=O)c5c(NCCCC(=O)O)cc(OC)c(c6c(OC)cc(O)c(c1=O)c63)c54)C=C(C)C2` [HC-8c], in data set [1], the maximum absorption wavelength turned out to be 618 nm and the molar extinction coefficient is 28,500 M^−1cm^−1. In data set [2], this compound yielded a singlet oxygen yield of 27%. In the data set with Hela cells (setting [5]), the Hela cells killed result was “more than 85%”.
Consider `COCCOCCOCCOCCOCCOCCOCCOCCOCCNC(=O)C1CCC(CNc2c3c4c5c(c(OC)c(=O)c6c(O)cc(OC)c(c7c(OC)cc(NCC8CCC(C(=O)NCCOCCOCCOCCOCCOCCOCCOCCOCCOC)CC8)c(c2=O)c74)c65)CC(C)=C3)CC1` (stereo not drawn) [HC-13c-NH-PEG8], for which, in data set [1], the maximum absorption wavelength is given as 630 nm and the molar extinction coefficient was 33,500 M^−1cm^−1. This compound registered a singlet oxygen yield in data set [2] of 38%. Also, the Hela cells killed entry with Hela cells (200 nM, red light, FIG. 18(b)) is recorded as “more than 85%”.
Regarding `COc1c2c3c4c(c(NCC5CCC(C(=O)OCCCCCC[P+](c6ccccc6)(c6ccccc6)c6ccccc6)CC5)c(=O)c5c(NCC6CCC(C(=O)OCCCCCC[P+](c7ccccc7)(c7ccccc7)c7ccccc7)CC6)cc(OC)c(c6c(OC)cc(O)c(c1=O)c63)c54)C=C(C)C2` (stereo not drawn) [HC-30c-C6-PPh3^+], in data set [1], the maximum absorption wavelength was determined as 632 nm and the molar extinction coefficient is on record as 33,500 M^−1cm^−1. The compound also gave a singlet oxygen yield in data set [2] of 40%.
The like results for `COc1c2c3c4c(c(NCC5CCC(C(=O)OCCCC[P+](c6ccccc6)(c6ccccc6)c6ccccc6)CC5)c(=O)c5c(O)cc(OC)c(c6c(OC)cc(NCC7CCC(C(=O)OCCCC[P+](c8ccccc8)(c8ccccc8)c8ccccc8)CC7)c(c1=O)c63)c54)C=C(C)C2` (stereo not drawn) [HC-30d-C4-PPh3^+] were, in that order, 630 nm, 32,500 M^−1cm^−1 and 31%.
Take `CCCCCCNc1c(NCCCCCC)c2c(=O)cc(OC)c3c4c(OC)cc(=O)c5c(O)c(OC)c6c(c(c1C=C(C)C6)c23)c54` [HC-34a]: in data set [1], the maximum absorption wavelength turned out to be 625 nm and the molar extinction coefficient is 31,500 M^−1cm^−1. In data set [2], this compound returned a singlet oxygen yield of 30%.
With `CCCCCCNc1c(O)c2c(=O)cc(OC)c3c4c(OC)cc(=O)c5c(NCCCCCC)c(OC)c6c(c(c1C=C(C)C6)c23)c54` [HC-34b], in data set [1], the maximum absorption wavelength amounted to 620 nm and the molar extinction coefficient is given as 31,500 M^−1cm^−1. In data set [2], the singlet oxygen yield was found to be 32%.
The like results for `CCCCCCNc1c2c3c4c(c(OC)c(=O)c5c(O)cc(OC)c(c6c(OC)cc(NCCCCCC)c(c1=O)c63)c54)CC(C)=C2` [HC-34c] were, in that order, 624 nm, 32,500 M^−1cm^−1 and 38%.
The like results for `CCCCCCNc1c2c3c4c(c(OC)c(=O)c5c(NCCCCCC)cc(OC)c(c6c(OC)cc(O)c(c1=O)c63)c54)CC(C)=C2` [HC-34d] were, in that order, 628 nm, 32,000 M^−1cm^−1 and 32%.
Regarding `COCCOC(=O)C1(Nc2c(NC3(C(=O)OCCOC)CC3)c3c(=O)cc(OC)c4c5c(OC)cc(=O)c6c(O)c(OC)c7c(c(c2C=C(C)C7)c34)c65)CC1` [HC-35a-PEG1], in data set [1], the maximum absorption wavelength came to 622 nm and the molar extinction coefficient is recorded as 31,000 M^−1cm^−1. In data set [2], this compound came in with a singlet oxygen yield of 32%.
For the compound `COc1c(O)c2c(=O)cc(OC)c3c4c(OC)cc(=O)c5c(NO)c(NO)c6c(c(c1CC(C)=C6)c23)c54` [HC-37a], in data set [1], the maximum absorption wavelength stood at 620 nm and the molar extinction coefficient was 30,500 M^−1cm^−1. Further, the singlet oxygen yield in data set [2] came to 32%.
The like results for `COc1c(NO)c2c(=O)cc(OC)c3c4c(OC)cc(=O)c5c(O)c(NO)c6c(c(c1CC(C)=C6)c23)c54` [HC-37b] were, in that order, 622 nm, 31,500 M^−1cm^−1 and 31%.
`COc1c2c3c4c(c(NO)c(=O)c5c(NO)cc(OC)c(c6c(OC)cc(O)c(c1=O)c63)c54)C=C(C)C2` [HC-37c]: in data set [1], the maximum absorption wavelength is recorded as 624 nm and the molar extinction coefficient is recorded as 34,000 M^−1cm^−1. The same compound came in with a singlet oxygen yield in data set [2] of 36%.
Turning to `COc1c2c3c4c(c(NO)c(=O)c5c(O)cc(OC)c(c6c(OC)cc(NO)c(c1=O)c63)c54)C=C(C)C2` [HC-37d], in data set [1], the maximum absorption wavelength was 620 nm and the molar extinction coefficient was 32,000 M^−1cm^−1. The compound further showed a singlet oxygen yield in data set [2] of 33%.
The like results for `COc1c(O)c2c(=O)cc(OC)c3c4c(OC)cc(=O)c5c(NCS(=O)(=O)O)c(NCCCS(=O)(=O)O)c6c(c(c1CC(C)=C6)c23)c54` [HC-45a] were, in that order, 613 nm, 21,000 M^−1cm^−1 and 18%.
The like results for `COc1c(NCS(=O)(=O)O)c2c(=O)cc(OC)c3c4c(OC)cc(=O)c5c(O)c(NCCCS(=O)(=O)O)c6c(c(c1CC(C)=C6)c23)c54` [HC-45b] were, in that order, 618 nm, 21,500 M^−1cm^−1 and 20%.
Regarding `COc1c2c3c4c(c(NCCCS(=O)(=O)O)c(=O)c5c(NCS(=O)(=O)O)cc(OC)c(c6c(OC)cc(O)c(c1=O)c63)c54)C=C(C)C2` [HC-45c], in data set [1], the maximum absorption wavelength worked out at 627 nm and the molar extinction coefficient is recorded as 22,000 M^−1cm^−1. This compound had a singlet oxygen yield in data set [2] of 21%.
The like results for `COc1c2c3c4c(c(NCCCS(=O)(=O)O)c(=O)c5c(O)cc(OC)c(c6c(OC)cc(NCS(=O)(=O)O)c(c1=O)c63)c54)C=C(C)C2` [HC-45d] were, in that order, 624 nm, 21,000 M^−1cm^−1 and 21%.

These data come from US11439707B2, “Hypocrellin derivative substituted both in a peri-position and in 2-position by amino, preparation method, and application thereof” (priority 2017, dated 2022).
